One data set is described as follows: Pharmacokinetic study. Type of data set: in vivo, Sprague-Dawley rats. To be noted: rat; for MRT last: read-out: MRT0-t. On the procedure: Eleven Sprague–Dawley rats (220–250 g, female) were bought from Hunan SJA Laboratory Animal Co., Ltd. (Changsha, China), and maintained and monitored in a specific pathogen-free environment. They were fasted overnight before the experiments. All rat studies were conducted according to protocols approved by the Animal Ethics Committee of Hubei University of Medicine. Six rats were administered with Eth (2 mg/kg) by intravenous injection, and the other five rats were inoculated with Eth (15 mg/kg) by intragastric injection. Blood samples of […] were collected from the orbit at the time points indicated. The plasma concentrations of Eth were determined by […] (Figure S1). The pharmacokinetic parameters were obtained from the pharmacokinetic software DAS 2.0 (Drug and Statistics Version 2.0).
We then tested the pharmacokinetic features of Eth in Sprague-Dawley rats. To do this, six rats were administered Eth (2 mg/kg) by intravenous (i.v.) injection, and another five rats were inoculated with Eth (15 mg/kg) by intragastric (i.g.) injection. the mean plasma concentration-time profiles are shown in Figures 6J, K, and the main pharmacokinetic parameters are summarized in Table 3. […] Therefore, Eth could be a potential therapeutic agent against BC.

Data set [1] deals with AMPK/mTORC1 signaling in MCF-7, MDA-MB-231, and MDA-MB-436 cells. Briefly: Western blot of AMPK/mTORC1 signaling. In kind it is cell-based, human. Particulars: western blot. On the procedure: Cells were lysed in radioimmunoprecipitation assay buffer containing 50 mM Tris, pH 8.0, 150 mM NaCl, 0.1% SDS, 0.5% sodium deoxycholate, 1% NP-40, 1 mM DTT, 1 mM NaF, 1 mM sodium orthovanadate, 1 mM phenylmethylsulfonyl fluoride (PMSF; Sigma-Aldrich; Merck KGaA), and 1% protease inhibitors cocktail (EMD Millipore, Billerica, MA, USA). Protein concentration was determined using the Bradford method. Equal amounts of sample (25 µg) were separated by SDS-PAGE (8–12% gels). Electrophoresed proteins were then transferred onto polyvinylidene fluoride membranes (EMD Millipore, Billerica, MA, USA). The membranes were blocked with 5% skimmed milk in Tris-buffered saline at room temperature for 1 h. Following blocking, membranes were incubated overnight at 4°C with primary antibodies and then rinsed with Tris-buffered saline with Tween 20. The following primary antibodies were used: anti-Glut3 (1:500; catalog no. sc-74399) (Santa Cruz Biotechnology, Inc., Dallas, TX, USA); anti-LC3 (1:1000; catalog no. 12741), anti-AMPKα (1:1000; catalog no. 2532), anti-phospho-AMPKα (Thr172) (1:1000; catalog no. 2535), anti-phospho-AMPKβ1 (Ser108) (1:1000; catalog no. 4181), anti-AMPKγ1 (1:1000; catalog no. 4187), anti-mTOR (1:1000; catalog no. 2983), anti-phospho-mTOR (Ser2448) (1:1000; catalog no. 5536), anti-P70S6K (1:1000; catalog no. 9202), anti-phospho-P70S6K (Thr389) (1:1000; catalog no. 92775), anti-4E-BP1 (1:1000; catalog no. 9234), anti-phospho-4E-BP1 (Thr37/46) (1:1000; catalog no. 2855), anti-ACC (1:1000; catalog no. 3676), anti-phospho-ACC ([…]) (1:1000; catalog no. 11818), anti-Glut1 (1:1000; catalog no. 12939), anti-Glut4 (1:1000; catalog no. 2213) (All Cell Signaling Technology, Inc., Danvers, MA, USA), and anti-GAPDH (1:5000; catalog no. M20006; Abmart, Shanghai, China). Membranes were then washed, and incubated with horseradish peroxidase-conjugated secondary antibody (1:10000; E030120-01 and E030110-01; EarthOx, LLC, San Francisco, CA, USA) for 1.5 h at room temperature. The protein bands were visualized using SuperSignal® West Pico PLUS Chemiluminescent substrate (catalog no. 34579; Pierce; Thermo Fisher Scientific, Inc., Rockford, IL, USA) ([Zhang et al., 2018]).
Figure 3 Eth induces autophagy through the AMPK/mTORC1 signaling. (A): MCF-7, MDA-MB-231, or MDA-MB-436 cells were treated with increasing concentrations of Eth for 24 h. Western blot was performed using antibodies indicated. […] (D): MDA-MB-231 or MDA-MB-436 cells transfected with pQCXIP-GFP-LC3 plasmid were treated with Eth (2.0 µM) and/or CC (25 µM) for 24 h, and assessed by immunoﬂuorescence analyses. […] (G): MDA-MB-231 or MDA-MB-436 cells transfected with pQCXIP-GFP-LC3 plasmid were treated with Eth (1.0 µM or 1.6 µM) and/or Met (10 mM) for 24 h, and assessed by immunoﬂuorescence analyses. […]

Where [2] appears, read: female, Sprague-Dawley, plasma, iv, i.v. (2 mg/kg).
Where [3] appears, read: female, Sprague-Dawley, plasma, po, i.g. (15 mg/kg).

Where two headings read alike, the source gives them in different places.

As usually defined, the AUC(0-t) is exposure summed from dosing to a finite time, without extrapolation to infinity. A low value points to less exposure. The Cmax is the highest concentration seen after dosing. For orientation: half-life means how long it takes for the measured level to halve. `CCOC1c2c(ccc3c2OCO3)-c2ccc3cc4c(cc3c2N1C)OCO4` (stereo not shown) [Eth, Ethoxysanguinarine]: in “Pharmacokinetic study” (setting [2]), the AUC(0-t) was 3640 ± 1560 ng·h/mL, the concentration peaked (Cmax) at 3580 ± 756 ng/mL, the half-life was 3.54 ± 1.79 h and the MRT last was found to be 2.18 ± 0.462 h. In addition, the clearance in “Pharmacokinetic study” (female, Sprague-Dawley, plasma, iv, i.v. (2 mg/kg), read-out: CLz (converted)) was 9.32 mL/min/kg. In “Pharmacokinetic study” (setting [3]), the area under the curve AUC(0-t) came out at 3390 ± 592 ng·h/mL, the highest level (Cmax) was 498 ± 110 ng/mL, the half-life is 4.05 ± 1.58 h and the MRT last worked out at 7.03 ± 1.01 h. In the data set “Pharmacokinetic study” (female, Sprague-Dawley, plasma, iv, 2 mg/kg, i.v. (2 mg/kg), read-out: Tmax), the Tmax stood at 0.083 h. The Tmax in “Pharmacokinetic study” (female, Sprague-Dawley, plasma, iv, 2 mg/kg, i.v. (2 mg/kg), read-out: time of peak plasma concentration (converted)) is 0.033 h. Moreover, the Tmax in “Pharmacokinetic study” (female, Sprague-Dawley, plasma, po, 15 mg/kg, i.g. (15 mg/kg), read-out: Tmax) was 2 h. Besides, in “Pharmacokinetic study” (i.g. (15 mg/kg)), the BA was found to be 12.43% and the CLz was 73.63 ± 14.9 mL/min/kg. Moreover, the “phosphorylation of mTORC1 effectors (mTOR, p70S6K, and 4EBP1)” value in data set [1] was “decreased the phosphorylation of mTORC1 effectors”. In data set [1] (dose- and time-dependent), the “phosphorylation of AMPKα at Thr172” value was “increased”.

The record behind these values is publication PMC6960228, “Ethoxysanguinarine, a Novel Direct Activator of AMP-Activated Protein Kinase, Induces Autophagy and Exhibits Therapeutic Potential in Breast Cancer Cells” (Frontiers in Pharmacology, 2020).
